# Laboratory results: PubChem BioAssay AID1033 (Sanford-Burnham Center for Chemical Genomics, 2008)
# Calls of active or inactive are those of the source. No rule for the calls is given here.
# Target: Chaperone protein DnaK (Escherichia coli (strain K12)) (UniProt P0A6Y8)
# Test: E. coli DnaK SBD ligand binding – biophysical, NMR, chaperone (AID 1033)
# Conditions: Purified DnaK SBD
# Chaperone protein DnaK (Escherichia coli (strain K12)), sequence (P0A6Y8 whole entry, looked up): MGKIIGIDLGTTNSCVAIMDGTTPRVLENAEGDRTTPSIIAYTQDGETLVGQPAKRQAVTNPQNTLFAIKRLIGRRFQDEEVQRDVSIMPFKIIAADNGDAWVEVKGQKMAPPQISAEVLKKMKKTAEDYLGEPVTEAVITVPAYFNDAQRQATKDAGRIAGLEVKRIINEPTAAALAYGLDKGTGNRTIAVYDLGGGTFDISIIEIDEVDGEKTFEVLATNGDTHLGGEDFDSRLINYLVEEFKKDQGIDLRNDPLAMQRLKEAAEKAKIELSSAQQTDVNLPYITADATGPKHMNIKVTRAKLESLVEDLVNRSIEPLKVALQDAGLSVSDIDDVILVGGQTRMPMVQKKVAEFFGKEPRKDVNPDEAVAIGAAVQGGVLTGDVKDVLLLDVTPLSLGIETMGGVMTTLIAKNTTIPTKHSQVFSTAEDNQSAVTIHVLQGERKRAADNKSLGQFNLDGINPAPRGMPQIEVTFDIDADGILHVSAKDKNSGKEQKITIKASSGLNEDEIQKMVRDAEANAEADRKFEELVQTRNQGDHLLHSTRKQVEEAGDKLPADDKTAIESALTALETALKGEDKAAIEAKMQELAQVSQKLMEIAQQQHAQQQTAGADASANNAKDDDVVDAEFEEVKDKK
row,Structure (SMILES),Kd
1,Nc1nc2c3ccccc3nc(Cc3ccccc3)n2n1,> 4 mM (inactive)
2,C[C@]12CCC3C(CC[C@H]4C[C@@H](O)CC[C@]34C)C1CCC2=O (stereo partly drawn),> 4 mM (inactive)
3,CCOC(=O)C1=C(O)CCN(C)C1,> 4 mM (inactive)
4,O=C(NCc1ccco1)c1ccc(Br)s1,> 4 mM (inactive)
5,Cc1cc(NC(=O)CSc2nncn2C)no1,> 4 mM (inactive)
6,Cc1c(N=CN(C)C)c(=O)n(-c2ccccc2)n1C,> 4 mM (inactive)
7,Cc1ccc(S(=O)(=O)/N=C2\NC(=O)CS2)cc1,> 4 mM (inactive)
8,NC(=O)c1cccnc1Oc1ccccc1,> 4 mM (inactive)
9,O=C(O)CC1C(=O)NCCN1Cc1cccs1 (stereo not drawn),> 4 mM (inactive)
10,Nc1ccc(S(=O)(=O)N2CCOCC2)cc1,> 4 mM (inactive)
11,Cc1cc(C)n2c(SCc3c(C)noc3C)nnc2n1,> 4 mM (inactive)
12,COc1ccc(-c2nc(C)sc2CC(=O)O)cc1,> 4 mM (inactive)
13,O=C(O)Cn1nnnc1-c1ccc(F)cc1,> 4 mM (inactive)
14,COc1c(-c2coc3cc4c(cc3c2=O)CC(O)C(C)(C)O4)ccc2c1C=CC(C)(C)O2 (stereo not drawn),> 4 mM (inactive)
15,COc1ccc(C[C@H]2NC[C@H](O)[C@H]2OC(C)=O)cc1,> 4 mM (inactive)
16,CSc1ccc(/C=N/n2c(C)nnc2C)cc1,> 4 mM (inactive)
17,c1cc(C(N2CCOCC2)N2CCOCC2)ccn1,> 4 mM (inactive)
18,Cc1nn(C)c(C)c1NC(=S)NC1CCCC1,> 4 mM (inactive)
19,CC(=O)c1sc2nc(N)nn2c1C,> 4 mM (inactive)
20,C=C1C[C@]23C[C@@]1(O)CC[C@H]2[C@@]12C=C[C@H](O)C(C)(C(=O)O1)[C@H]2[C@@H]3C(=O)O,> 4 mM (inactive)
21,NC(=O)CN1CC(c2ccccc2)CC1=O (stereo not drawn),> 4 mM (inactive)
22,CC(=O)Nc1nc(C)c(C(C)=O)s1,> 4 mM (inactive)
23,CC(=O)O[C@H]1C[C@@H](OC(C)=O)C(C)(C)C2C[C@@H](O)[C@]3(C)C(CC[C@@]4(C)[C@H](c5ccoc5)OC(=O)[C@H]5O[C@]543)[C@]21C (stereo partly drawn),> 4 mM (inactive)
24,CC(=O)Nc1cccc(N(C)S(C)(=O)=O)c1,> 4 mM (inactive)

row,Structure (SMILES),Kd
1,COc1ccc(NC(=O)C2CC(=O)N=C(N)S2)cc1 (stereo not drawn),> 4 mM (inactive)
2,Cc1cc(NC(=O)CS(=O)(=O)c2ccccc2)no1,> 4 mM (inactive)
3,O=C1C2C3C=CC(O3)C2C(=O)N1c1ccccc1 (stereo not drawn),> 4 mM (inactive)
4,COC(=O)c1ccccc1C,> 4 mM (inactive)
5,Cc1nc(-c2ccccc2)ncc1C(=O)O,> 4 mM (inactive)
6,c1ccc(CNc2ncnc3nc[nH]c23)nc1,> 4 mM (inactive)
7,C/C(=C\CO)CC[C@H](C)CCC[C@H](C)CCCC(C)C,> 4 mM (inactive)
8,Cc1noc(C)c1C(=O)N1CCc2ccccc2C1,> 4 mM (inactive)
9,CS(=O)(=O)N1CCN(C(=O)Cc2cccs2)CC1,> 4 mM (inactive)
10,CCCS(=O)(=O)N1CCN(c2ccccc2F)CC1,> 4 mM (inactive)
11,O=C(O)CCC(=O)Nc1nnc(C(F)(F)F)s1,> 4 mM (inactive)
12,Cc1cc(=O)[nH]c2ccccc12,> 4 mM (inactive)
13,COc1ccccc1NS(=O)(=O)c1c[nH]c(=O)[nH]c1=O,> 4 mM (inactive)
14,CC(=O)NN1C(=O)/C(=C\c2ccc(O)cc2)SC1=S,> 4 mM (inactive)
15,O=C(Nc1cccnc1)c1cccs1,> 4 mM (inactive)
16,O=C(/C=C/c1ccc(O)cc1)c1ccc(O)cc1O,> 4 mM (inactive)
17,COc1ccc2c(c1)[n+](=O)c(C(C)=O)c(C)n2[O-],> 4 mM (inactive)
18,CC(=O)CC(=O)N1C(O)CC[N+]1(C)C (stereo not drawn),> 4 mM (inactive)
19,COc1ccc(NS(=O)(=O)c2ccc(N)cc2)nn1,> 4 mM (inactive)
20,Cc1ccc2nc(NC(=O)CN3CCOCC3)sc2c1,> 4 mM (inactive)
21,N#CC(O[C@@H]1O[C@H](CO[C@@H]2O[C@H](CO)[C@@H](O)[C@H](O)[C@H]2O)[C@@H](O)[C@H](O)[C@H]1O)c1ccccc1 (stereo partly drawn),> 4 mM (inactive)
22,COc1ccc(O)c(-c2cn[nH]c2-c2cccs2)c1,> 4 mM (inactive)
23,CCOc1ccc(-c2c(=O)n(O)c3ccccc3[n+]2[O-])cc1,> 4 mM (inactive)
24,O=C(Nc1nnc(-c2ccco2)o1)C1=COCCO1,> 4 mM (inactive)

row,Structure (SMILES),Kd
1,Cc1ccc(SCc2cc(=O)n3[nH]cnc3n2)cc1,> 4 mM (inactive)
2,O=C(NCc1ccco1)c1nc2ncccn2n1,> 4 mM (inactive)
3,Cc1nn2c(-c3ccncc3)nnc2c2ccccc12,> 4 mM (inactive)
4,CC(=O)Nc1nnc(-c2ccccn2)o1,> 4 mM (inactive)
5,Cc1cc(N)n(-c2ccccc2)n1,> 4 mM (inactive)
6,Cn1c(=O)[nH]c(=O)c2nsnc21,> 4 mM (inactive)
7,NS(=O)(=O)c1ccc(N=Cc2cccs2)cc1,> 4 mM (inactive)
8,CN(C)c1ccc(/C=C2/NC(=S)NC2=O)cc1,> 4 mM (inactive)
9,CC1Cc2nc(SCC(N)=O)n(C)c(=O)c2S1 (stereo not drawn),> 4 mM (inactive)
10,OC[C@@H]1CCCN2CCCC[C@H]12,> 4 mM (inactive)
11,Nc1ccc(Cc2ccncc2)cc1,> 4 mM (inactive)
12,Cc1ccc(C(=O)Nn2cnnc2)c(Cl)c1,> 4 mM (inactive)
13,COc1ccccc1-c1noc(-c2ccncc2)n1,> 4 mM (inactive)
14,Cc1noc(-c2ccccc2)c1C(=O)O,> 4 mM (inactive)
15,COc1cc(N)ncn1,> 4 mM (inactive)
16,CC(=O)Nc1c(C#N)c(C(C)(C)C)cn1C,> 4 mM (inactive)
17,Cc1nc2ccc(NC(=O)N3CCOCC3)cc2s1,> 4 mM (inactive)
18,NC(=O)c1ccc(NC(=O)c2cccnc2)cc1,> 4 mM (inactive)
19,NCc1ccc(-c2ccccn2)s1,> 4 mM (inactive)
20,CCOc1ccc(C(=O)c2ccc(O)c(O)c2O)cc1,> 4 mM (inactive)
21,Oc1ccccc1N1CCCC1,> 4 mM (inactive)
22,CCOC(=O)C1CCN(c2ccc(C#N)cc2)CC1,> 4 mM (inactive)
23,O=C(Nc1ccccc1C(F)(F)F)c1cnccn1,> 4 mM (inactive)
24,O=C(Nc1nnc(-c2ccco2)o1)c1ccc([N+](=O)[O-])o1,> 4 mM (inactive)

row,Structure (SMILES),Kd
1,OC1CCN(Cc2ccc[nH]2)CC1,> 4 mM (inactive)
2,Cc1ccccc1C(=O)Nc1cccc(N)c1,> 4 mM (inactive)
3,NC(=O)C1CCN(C(=S)c2cccs2)CC1,> 4 mM (inactive)
4,CC(=O)Nc1nnc(-c2ccccc2S(C)(=O)=O)o1,> 4 mM (inactive)
5,Nc1nc(NCc2ccco2)nn1-c1ccccc1,> 4 mM (inactive)
6,CSc1ccccc1NC(=O)c1ccco1,> 4 mM (inactive)
7,C=CC(C1=CC(=O)C=CC1=O)c1ccccc1 (stereo not drawn),> 4 mM (inactive)
8,COC(=O)C1Cc2ccccc2N1 (stereo not drawn),> 4 mM (inactive)
9,NC(=O)CCn1ncc2ccccc21,> 4 mM (inactive)
10,N=C1/C(=C\c2ccco2)C(=O)N=C2SC=NN12,> 4 mM (inactive)
11,COCc1nc(-c2cc(Br)ccc2OC)no1,> 4 mM (inactive)
12,CNC(=S)Nc1ccc(OC)cc1C,> 4 mM (inactive)
13,O=C1c2ccncc2C(=O)N1CO,> 4 mM (inactive)
14,Cn1c(SCC(N)=O)nnc1-c1c[nH]c2ccccc12,> 4 mM (inactive)
15,COc1ccc(C(C)=O)c(O)c1,> 4 mM (inactive)
16,COc1cc([C@@H]2c3cc4c(cc3[C@H](O)[C@H]3COC(=O)[C@@H]23)OCO4)cc(OC)c1OC,> 4 mM (inactive)
17,O=c1ccn(Cc2ccccc2)c(=O)[nH]1,> 4 mM (inactive)
18,Cc1nnc2n(c1=O)N=C(c1ccccc1)CS2,> 4 mM (inactive)
19,CCOC(=O)c1c(C)n([O-])c2ccccc2[n+]1=O,> 4 mM (inactive)
20,CCOC(=O)c1[nH]cnc1C(=O)OC(C)C,> 4 mM (inactive)
21,CC(=O)O[C@@H]1CC[C@@]2(C)C(CC[C@]3(C)C2CC=C2C4CC(C)(C)CC[C@]4(C(=O)O)CC[C@]23C)C1(C)C (stereo partly drawn),> 4 mM (inactive)
22,CN1CCN(C(=O)c2cc(-c3ccccc3)on2)CC1,> 4 mM (inactive)
23,Oc1ccccc1C(=S)N1CCCCCC1,> 4 mM (inactive)
24,NC(=NCCC[C@H](N)C(=O)O)NC(CCC(=O)O)C(=O)O (stereo partly drawn),> 4 mM (inactive)

row,Structure (SMILES),Kd
1,COc1ccc2c(=O)c(OC)c(-c3ccccc3)oc2c1,> 4 mM (inactive)
2,O=C(OCc1c(F)cccc1Cl)c1cnccn1,> 4 mM (inactive)
3,O=C(CSc1ncccn1)NCc1ccco1,> 4 mM (inactive)
4,CN1CCN(C(=S)NC(=O)c2ccn(C)n2)CC1,> 4 mM (inactive)
5,O=C(NCc1cccc(Cl)c1)c1cnccn1,> 4 mM (inactive)
6,O=C1Cc2ccccc2N1c1ccccc1,> 4 mM (inactive)
7,O=C(O)c1cccc(-n2cccc2)c1,> 4 mM (inactive)
8,CC1NC(C(=O)O)Cc2c1[nH]c1ccccc21 (stereo not drawn),> 4 mM (inactive)
9,Nc1ncnc(NCCCO)c1[N+](=O)[O-],> 4 mM (inactive)
10,Cc1ccc(Nc2nnns2)cc1C,> 4 mM (inactive)
11,Cc1nc(-c2cccc(-c3noc(C)n3)c2)no1,> 4 mM (inactive)
12,Cc1cn2c(-c3cccnc3)nnc2s1,> 4 mM (inactive)
13,COC(=O)/C(=C1\OC(=O)C(c2ccccc2)C1=O)c1ccccc1 (stereo not drawn),> 4 mM (inactive)
14,O=C(O)CCCc1nc2ccccc2s1,> 4 mM (inactive)
15,CC(=O)NCC1(c2ccccc2)CCOCC1,> 4 mM (inactive)
16,c1cc2c(cc1[C@H]1OC[C@H]3[C@@H]1CO[C@H]3c1ccc3c(c1)OCO3)OCO2,> 4 mM (inactive)
17,COc1cccc(-c2nc(-c3ccccn3)no2)c1OC,> 4 mM (inactive)
18,C=C(C)[C@@H]1CC[C@]2(CO)CC[C@]3(C)[C@H](CCC4[C@@]5(C)CC[C@H](O)C(C)(C)C5CC[C@]43C)C12 (stereo partly drawn),> 4 mM (inactive)
19,O=C(Nc1ccccc1C(F)(F)F)N1CCCCCC1,> 4 mM (inactive)
20,NC(=O)Cn1nc2c3c(cccc3c1=O)-c1ccccc1-2,> 4 mM (inactive)
21,Cc1nn(-c2ccccc2C(=O)O)c(=O)c2ccccc12,> 4 mM (inactive)
22,Cn1cnnc1SCC(=O)Nc1ccccc1,> 4 mM (inactive)
